Measurements reported in US20100184596A1, “METHOD FOR THE CONTROL OF WEEDS IN TURF” (SYNGENTA CROP PROTECTION, INC., priority 2007, published 2010).

Key:
Assay type in all cases: in vivo
[1] = tested on: Tall fescue; assay: Selective post-emergence herbicidal action, field trial Hudson (Table B1.2); settings: 28 days after application
Method: (§1) The selectivity of the compound of formula I in turf (removal of grassy and broadleaf weeds) has been tested in turfgrass varieties selected from Kentucky bluegrass, tall fescue and perennial ryegrass and in […] selected from clover (an aggressive perennial weed) and dandelion (a weed of perennial horticultural crops and gardens which may also be a problem in some annual crops, particularly where reduced tillage is practiced).
(§2) The trials were conducted in Champaign, Ill., U.S. (Table B1.1) and Hudson, N.Y., U.S. (Table B1.2) under field conditions. Turfgrasses were maintained at approximately a 2.5″ height, like a home lawn. Mixed turf and weed stands were present. The test compounds were applied with a CO2 pressurized backpack sprayer by spraying in the form of an aqueous suspension (prepared from a wettable powder) in a concentration of 210 to 280 g/ha. The plots were then mowed and irrigated as needed. After 22 and 28 days respectively, the test is visually evaluated (100%=total damage to plant; 0%=no damage to plant).

[2] = tested on: Dandelion; assay: as above; settings: 28 days after application
Method: as §1, §2

[3] = tested on: clover and dandelion in turfgrass varieties; assay: Example B1, conclusion in words; settings: in Kentucky bluegrass, tall fescue and perennial ryegrass at the tested application rates
Method: as §1, §2

[4] = tested on: Trifolium repens (white clover); assay: Weed control via post emergence spray, in St. Augustinegrass v. Floratam (Table B5.4)
Method: (§3) The weed control efficacy of the compound of formula I was tested. The compound was applied via post emergence spray to a range of weeds, at various rates and spray treatment treatment regimes. Percentage weed control assessments were taken at various timepoints.

[5] = tested on: St. Augustinegrass v. Delmar; assay: Phytotoxicity via post emergence spray application (Table B2.8); settings: 1 appl
Method: The phytotoxicity of the compound of formula I to turfgrass species was tested. The compound was applied via post emergence spray to a range of warm and cool season turfgrass species at various rates and spray treatment treatment regimes. Percentage phytotoxicity assessments were taken at various timepoints.

[6] = tested on: Hydrocotyle sp. (dollarweed); assay: Example B7, conclusion in words
Method: The weed control efficacy of the compound of formula I in combination with various safeners was tested. The combinations were applied by post emergence spray application. Percentage weed control assessments were taken at various timepoints.

[7] = tested on: Bermudagrass v. Tifway 419; assay: Phytotoxicity via granule application (Table B3.2)
Method: The phytotoxicity of the compound of formula I to turfgrass species was tested. The compound was applied by distribution of granule formulations of formula I, post emergence, to turfgrass species at two rates. All treatments were watered-in 1 day after application. Percentage phytotoxicity assessments were taken at various timepoints.
Two granule formulations were made and tested. Granule A is an inert granule formulation, comprising 99.06 wt % DG Lite 150 granules, 0.14 wt % compound of formula I, 0.50 wt % Sunspray 6N, and 0.30 wt % HiSil 233. The compound of formula I was added to the DG Lite granules while blending in a Continental Rollo-mixer.
Sunspray 6N oil was then sprayed onto the granules, and HiSil added to dry excess liquid and improve granule flowability. The granules were blended in the mixer for 20-30 minutes until homogeneous, and passed through a −12/+60 mesh to remove over and under sized particles.
Granule B is a fertiliser granule formulation, comprising 54.65 wt % urea, 6.63 wt % triple super phosphate, 4.95 wt % potassion chloride, 9.91 wt % huber clay, 7.22 wt % HiSil 233, 0.16 wt % compound of formula I, […] agnique ME 181, 2.07 wt % stepfac 8180, and 11.98 wt % water. […] The remaining HiSil was added and granules dried at 40-60° C., to remove excess liquid. Finally, the granules were passed through a −12/+60 mesh to remove over and under sized particles.

[8] = tested on: turfgrass weeds; assay: Example B5, conclusion in words; settings: post emergence spray
Method: as §3

COCCOCc1nc(C(F)(F)F)ccc1C(=O)C1=C(O)C2CCC(C2)C1=O (stereo not drawn) [Formula I, 4-Hydroxy-3-[2-(2-methoxyethoxymethyl)-6-trifluoromethylpyridine-3-carbonyl]-bicyclo[3.2.1]oct-3-en-2-one]
% damage ([1]; 210 g/ha): 0% | % damage ([1]; 280 g/ha): 0% | % damage ([2]; 210 g/ha): 82.5% | % damage ([2]; 280 g/ha): 90% | selective weed control in turfgrass, in words [3]: suitable to combat undesired broadleaf weeds like clover and dandelion in turfgrass varieties | % control ([4]; 1 appl, 140 g ai/ha, 5 DAT): 21.67% | % control ([4]; 1 appl, 140 g ai/ha, 13 DAT): 86.67% | % control ([4]; 1 appl, 140 g ai/ha, 21 DAT): 85.00% | % control ([4]; 1 appl, 140 g ai/ha, 27 DAT): 88.33% | % control ([4]; 1 appl, 140 g ai/ha, 35 DAT): 78.33% | % control ([4]; 1 appl, 140 g ai/ha, 42 DAT): 76.67% | % control ([4]; 1 appl, 140 g ai/ha, 61 DAT): 76.67% | % control ([4]; 1 appl, 280 g ai/ha, 5 DAT): 25.00% | % control ([4]; 1 appl, 280 g ai/ha, 13 DAT): 91.67% | % control ([4]; 1 appl, 280 g ai/ha, 21 DAT): 90.00% | % control ([4]; 1 appl, 280 g ai/ha, 27 DAT): 93.33% | % control ([4]; 1 appl, 280 g ai/ha, 35 DAT): 91.67% | % control ([4]; 1 appl, 280 g ai/ha, 42 DAT): 90.00% | % control ([4]; 1 appl, 280 g ai/ha, 61 DAT): 90.00% | % control ([4]; 2 appl, 140 g ai/ha, 5 DAT): 25.00% | % control ([4]; 2 appl, 140 g ai/ha, 13 DAT): 88.33% | % control ([4]; 2 appl, 140 g ai/ha, 21 DAT): 86.67% | % control ([4]; 2 appl, 140 g ai/ha, 27 DAT): 91.67% | % control ([4]; 2 appl, 140 g ai/ha, 35 DAT): 96.00% | % control ([4]; 2 appl, 140 g ai/ha, 42 DAT): 96.67% | % control ([4]; 2 appl, 140 g ai/ha, 61 DAT): 100.00% | % control ([4]; 2 appl, 280 g ai/ha, 5 DAT): 26.67% | % control ([4]; 2 appl, 280 g ai/ha, 13 DAT): 95.00% | % control ([4]; 2 appl, 280 g ai/ha, 21 DAT): 93.33% | % control ([4]; 2 appl, 280 g ai/ha, 27 DAT): 95.00% | % control ([4]; 2 appl, 280 g ai/ha, 35 DAT): 99.33% | % control ([4]; 2 appl, 280 g ai/ha, 42 DAT): 100.00% | % control ([4]; 2 appl, 280 g ai/ha, 61 DAT): 100.00% | % phytotoxicity ([5]; 10 g ai/ha, 5 DAT): 5.00% | % phytotoxicity ([5]; 10 g ai/ha, 12 DAT): 5.00% | % phytotoxicity ([5]; 10 g ai/ha, 18 DAT): 0.00% | % phytotoxicity ([5]; 10 g ai/ha, 28 DAT): 0.00% | % phytotoxicity ([5]; 20 g ai/ha, 5 DAT): 6.67% | % phytotoxicity ([5]; 20 g ai/ha, 12 DAT): 6.67% | % phytotoxicity ([5]; 20 g ai/ha, 18 DAT): 2.00% | % phytotoxicity ([5]; 20 g ai/ha, 28 DAT): 0.00% | % phytotoxicity ([5]; 40 g ai/ha, 5 DAT): 11.67% | % phytotoxicity ([5]; 40 g ai/ha, 12 DAT): 18.33% | % phytotoxicity ([5]; 40 g ai/ha, 18 DAT): 4.00% | % phytotoxicity ([5]; 40 g ai/ha, 28 DAT): 0.00% | % phytotoxicity ([5]; 80 g ai/ha, 5 DAT): 16.67% | % phytotoxicity ([5]; 80 g ai/ha, 12 DAT): 30.00% | % phytotoxicity ([5]; 80 g ai/ha, 18 DAT): 5.00% | % phytotoxicity ([5]; 80 g ai/ha, 28 DAT): 0.67% | % phytotoxicity ([5]; 160 g ai/ha, 5 DAT): 23.33% | % phytotoxicity ([5]; 160 g ai/ha, 12 DAT): 46.67% | % phytotoxicity ([5]; 160 g ai/ha, 18 DAT): 8.33% | % phytotoxicity ([5]; 160 g ai/ha, 28 DAT): 3.00% | herbicidal efficacy in presence of a safener, in words [6]: does not significantly effect the herbicidal efficacy | % phytotoxicity ([7]; Granule A (inert), 112 g ai/ha, 7 DAT): 6.00% | % phytotoxicity ([7]; Granule A (inert), 112 g ai/ha, 11 DAT): 0.00% | % phytotoxicity ([7]; Granule A (inert), 280 g ai/ha, 7 DAT): 23.30% | % phytotoxicity ([7]; Granule A (inert), 280 g ai/ha, 11 DAT): 8.30% | % phytotoxicity ([7]; Granule A (inert), 280 g ai/ha, 15 DAT): 2.30% | % phytotoxicity ([7]; Granule A (inert), 280 g ai/ha, 20 DAT): 0.00% | % phytotoxicity ([7]; Granule B (fertiliser), 112 g ai/ha, 7 DAT): 16.70% | % phytotoxicity ([7]; Granule B (fertiliser), 280 g ai/ha, 7 DAT): 33.30% | weed control, in words [8]: effective at controlling a variety of turfgrass weeds, even when applied at low rates
